In patent publication US20170042991A1, “COMPOSITIONS COMPRISING GLUTEN PEPTIDES AND USES THEREOF” (ImmusanT, Inc., priority 2014, published 2017):
Non-standard residues stand in square brackets, D forms with d. pGlu = O=C1CC[C@@H](C(=O)O)N1

What was measured:
Assay type in all cases: cell-based, human
whole blood = experiment: 96-well plate whole blood multiplex cytokine release, IP-10 (MAGPIX bead assay, Example 2); details: for Percent of maximal response, IP-10: after oral gluten challenge; for IP-10 WB MAGPIX % max Mean: individual peptides 5 μM, Day-6, n = 10, Peptide 2 = CSBio batch
PBMC [1] = experiment: Overnight IFNγ ELISpot assay with fresh PBMC (Example 2); details: for Percent of maximal response, ELISp: after oral gluten challenge; for IFNγ ELISpot % max Mean: individual peptides 5 μM, Day-6, n = 5, Peptide 2 = CSBio batch
Experimental: Ten HLA-DQ2.5+ adults with celiac disease diagnosed according to the National Institutes of Health Consensus Statement 2004 were enrolled (Table 7).^22 Subjects were required to have followed gluten-free diet for at least one year and without known gluten exposures within the previous two-months. […] Full inclusion and exclusion criteria are described in Table 8. Each of 3 consecutive days subjects consumed 3 cookies that were prepared from approximately 4.5 g wheat gluten, 3 g barley flour protein, and 1.5 g rye flour protein. Blood was collected before and six days after commencing the oral challenge. Blood was collected using a 21G butterfly needle directly into 10 mL lithium heparin tubes (BD Vacutainer® Heparin tube #367880) and QuantiFERON® NIL (0591-0205, Cellestis Ltd., Chadstone VIC 3148 Australia) and QuantiFERON® MITOGEN (0593-0201, Cellestis Ltd.).
Overnight IFNγ ELISpot assays (Human IFN-γ ELISpotPRO kit, transparent, ALP; Mabtech AB, #3420-2APT-10) were performed using PBMC freshly separated from heparinized blood diluted 1:1 in PBS with 2% fetal bovine serum (Stemcell Technologies #07905; Vancouver, BC, V5Z 1B3, Canada) overlaid on density gradient medium (Ficoll-Paque™ PLUS; GE Healthcare Lice Sciences #:17-1440-02) in SepMate™-50 tubes (Stemcell Technologies #15460). PBMC (8 million/mL) were resuspended in serum-free medium with gentamicin and phenol red (X-VIVO™15; Lonza, Walkersville Mass. 21793). PBMC (0.4 million/50 μL/well) and incubated with 50 μL 80% X-vivol5, 0.2% DMSO and 20% PBS in three triplicate wells (“medium only”), or with 50 μL PHA-L 20 μg/ml or peptide at 2× final concentration in 80% X-vivol5, 0.2% DMSO and 20% PBS. Peptide solutions to be added to individual ELISpot wells were prepared in 96-well U-bottom plates (60 μL/well) that were then sealed with adhesive ELISA plate cover slips before replacing the plastic lid and being frozen at −80° C. 96-well plates containing peptide solutions were thawed at room temperature for 10 min while being centrifuged at 300 g immediately prior to being added to ELISpot wells. Peptide pools and mitogen were assessed in triplicate wells, and individual peptides were assessed in duplicate wells. X-VIVO™15 (50 μL) was incubated with 80% X-vivol5, 0.2% DMSO and 20% PBS (50 μL) in triplicate wells (“no PBMC” control). A Zeiss automated ELISpot counter was used to determine spot forming units (SFU) per well (Zellnet Inc., Fort Lee, N.J. 07024). Laboratory staff were unaware of the arrangement of peptide solutions in ELISpot wells during assay setup and plate counting.

PBMC [2] = experiment: IFN-gamma ELISpot of PBMC, Day-6 after gluten challenge (Example 1); details: DQ2.5+ CD

(pE)LQPFPQPELPYPQPQ-amide ([pGlu]LQPFPQPELPYPQPQ-NH2; SMILES CC(C)C[C@H](NC(=O)[C@@H]1CCC(=O)N1)C(=O)N[C@@H](CCC(N)=O)C(=O)N1CCC[C@H]1C(=O)N[C@@H](Cc1ccccc1)C(=O)N1CCC[C@H]1C(=O)N[C@@H](CCC(N)=O)C(=O)N1CCC[C@H]1C(=O)N[C@@H](CCC(=O)O)C(=O)N[C@@H](CC(C)C)C(=O)N1CCC[C@H]1C(=O)N[C@@H](Cc1ccc(O)cc1)C(=O)N1CCC[C@H]1C(=O)N[C@@H](CCC(N)=O)C(=O)N1CCC[C@H]1C(=O)N[C@@H](CCC(N)=O)C(N)=O) [Peptide 1]
Percent of maximal response, IP-10 (whole blood; Subject 1, Max. 2331 pg/mL): 100 % of max
Percent of maximal response, IP-10 (whole blood; Subject 2, Max. 3646 pg/mL): 100 % of max
Percent of maximal response, IP-10 (whole blood; Subject 3, Max. 9492 pg/mL): ≥ 100 % of max
Percent of maximal response, IP-10 (whole blood; Subject 4, Max. 9463 pg/mL): 96 % of max
Percent of maximal response, IP-10 (whole blood; Subject 5, Max. 9336 pg/mL): 14 % of max
Percent of maximal response, IP-10 (whole blood; Subject 6, Max. 5863 pg/mL): 23 % of max
Percent of maximal response, IP-10 (whole blood; Subject 7, Max. 2330 pg/mL): 39 % of max
Percent of maximal response, IP-10 (whole blood; Subject 8, Max. 4019 pg/mL): 3 % of max
Percent of maximal response, IP-10 (whole blood; Subject 9, Max. 8349 pg/mL): 75 % of max
Percent of maximal response, IP-10 (whole blood; Subject 10, Max. 8922 pg/mL): 34 % of max
IP-10 WB MAGPIX % max Mean (whole blood): 58 % max
Percent of maximal response, ELISp (PBMC [1]; Subject 3, Max. 18 SFU): 11 % of max
Percent of maximal response, ELISp (PBMC [1]; Subject 4, Max. 36 SFU): 22 % of max
Percent of maximal response, ELISp (PBMC [1]; Subject 6, Max. 16 SFU): 25 % of max
Percent of maximal response, ELISp (PBMC [1]; Subject 8, Max. 17 SFU): 0 % of max
Percent of maximal response, ELISp (PBMC [1]; Subject 10, Max. 11 SFU): 9 % of max
IFNγ ELISpot % max Mean (PBMC [1]): 13 % max
Peptide-specific IFN-gamma ELISpot response (PBMC [2]; Subject 1, 10 ug/ml): 2 spot forming units per 0.8 million PBMC
Peptide-specific IFN-gamma ELISpot response (PBMC [2]; Subject 2, 10 ug/ml): 4 spot forming units per 0.8 million PBMC
Peptide-specific IFN-gamma ELISpot response (PBMC [2]; Subject 3, 10 ug/ml): 2 spot forming units per 0.8 million PBMC
Peptide-specific IFN-gamma ELISpot response (PBMC [2]; Subject 4, 10 ug/ml): 8 spot forming units per 0.8 million PBMC
Peptide-specific IFN-gamma ELISpot response (PBMC [2]; Subject 5, 10 ug/ml): 0 spot forming units per 0.8 million PBMC
Peptide-specific IFN-gamma ELISpot response (PBMC [2]; Subject 6, 10 ug/ml): 4 spot forming units per 0.8 million PBMC
Peptide-specific IFN-gamma ELISpot response (PBMC [2]; Subject 7, 10 ug/ml): 1 spot forming units per 0.8 million PBMC
Peptide-specific IFN-gamma ELISpot response (PBMC [2]; Subject 8, 10 ug/ml): 0 spot forming units per 0.8 million PBMC
Peptide-specific IFN-gamma ELISpot response (PBMC [2]; Subject 9, 10 ug/ml): 0 spot forming units per 0.8 million PBMC
Peptide-specific IFN-gamma ELISpot response (PBMC [2]; Subject 10, 10 ug/ml): 1 spot forming units per 0.8 million PBMC

(pE)PEQPIPEQPQPYPQQ-amide ([pGlu]PEQPIPEQPQPYPQQ-NH2; SMILES CC[C@H](C)[C@H](NC(=O)[C@@H]1CCCN1C(=O)[C@H](CCC(N)=O)NC(=O)[C@H](CCC(=O)O)NC(=O)[C@@H]1CCCN1C(=O)[C@@H]1CCC(=O)N1)C(=O)N1CCC[C@H]1C(=O)N[C@@H](CCC(=O)O)C(=O)N[C@@H](CCC(N)=O)C(=O)N1CCC[C@H]1C(=O)N[C@@H](CCC(N)=O)C(=O)N1CCC[C@H]1C(=O)N[C@@H](Cc1ccc(O)cc1)C(=O)N1CCC[C@H]1C(=O)N[C@@H](CCC(N)=O)C(=O)N[C@@H](CCC(N)=O)C(N)=O) [Peptide 3]
Percent of maximal response, IP-10 (whole blood; Subject 1, Max. 2331 pg/mL): 51 % of max
Percent of maximal response, IP-10 (whole blood; Subject 2, Max. 3646 pg/mL): 14 % of max
Percent of maximal response, IP-10 (whole blood; Subject 3, Max. 9492 pg/mL): ≥ 100 % of max
Percent of maximal response, IP-10 (whole blood; Subject 4, Max. 9463 pg/mL): ≥ 100 % of max
Percent of maximal response, IP-10 (whole blood; Subject 5, Max. 9336 pg/mL): 53 % of max
Percent of maximal response, IP-10 (whole blood; Subject 6, Max. 5863 pg/mL): 43 % of max
Percent of maximal response, IP-10 (whole blood; Subject 7, Max. 2330 pg/mL): 5 % of max
Percent of maximal response, IP-10 (whole blood; Subject 8, Max. 4019 pg/mL): 100 % of max
Percent of maximal response, IP-10 (whole blood; Subject 9, Max. 8349 pg/mL): 85 % of max
Percent of maximal response, IP-10 (whole blood; Subject 10, Max. 8922 pg/mL): ≥ 100 % of max
IP-10 WB MAGPIX % max Mean (whole blood): 65 % max
whole blood IP-10 release compared with that stimulated by Peptide 14 (whole blood; whole blood incubations): one-quarter less
IFNγ ELISpot responses relative to Peptide 14 5 μM (PBMC [1]; Peptide 3 10 μg/mL (5.3 μM)): one-half
Percent of maximal response, ELISp (PBMC [1]; Subject 3, Max. 18 SFU): 50 % of max
Percent of maximal response, ELISp (PBMC [1]; Subject 4, Max. 36 SFU): 83 % of max
Percent of maximal response, ELISp (PBMC [1]; Subject 6, Max. 16 SFU): 69 % of max
Percent of maximal response, ELISp (PBMC [1]; Subject 8, Max. 17 SFU): 53 % of max
Percent of maximal response, ELISp (PBMC [1]; Subject 10, Max. 11 SFU): 9 % of max
IFNγ ELISpot % max Mean (PBMC [1]): 53 % max
Peptide-specific IFN-gamma ELISpot response (PBMC [2]; Subject 1, 10 ug/ml): 0 spot forming units per 0.8 million PBMC
Peptide-specific IFN-gamma ELISpot response (PBMC [2]; Subject 2, 10 ug/ml): 1 spot forming units per 0.8 million PBMC
Peptide-specific IFN-gamma ELISpot response (PBMC [2]; Subject 3, 10 ug/ml): 9 spot forming units per 0.8 million PBMC
Peptide-specific IFN-gamma ELISpot response (PBMC [2]; Subject 4, 10 ug/ml): 30 spot forming units per 0.8 million PBMC
Peptide-specific IFN-gamma ELISpot response (PBMC [2]; Subject 5, 10 ug/ml): 0 spot forming units per 0.8 million PBMC
Peptide-specific IFN-gamma ELISpot response (PBMC [2]; Subject 6, 10 ug/ml): 11 spot forming units per 0.8 million PBMC
Peptide-specific IFN-gamma ELISpot response (PBMC [2]; Subject 7, 10 ug/ml): 1 spot forming units per 0.8 million PBMC
Peptide-specific IFN-gamma ELISpot response (PBMC [2]; Subject 8, 10 ug/ml): 9 spot forming units per 0.8 million PBMC
Peptide-specific IFN-gamma ELISpot response (PBMC [2]; Subject 9, 10 ug/ml): 3 spot forming units per 0.8 million PBMC
Peptide-specific IFN-gamma ELISpot response (PBMC [2]; Subject 10, 10 ug/ml): 1 spot forming units per 0.8 million PBMC
